# Measured values: US10752596B2, “Nitrogen-containing heteroaryl compound and pharmaceutical use thereof” (JAPAN TOBACCO INC., priority 2017, dated 2020)
# Molecular target: human GLUT9 (Homo sapiens (Human), UniProt Q9NRM0)
# Experiment: Evaluation of human GLUT9 inhibitory activity ([14C] uric acid uptake in human GLUT9 expressing HEK293T cells transduced with Uricase/Hyper)
# Type: cell-based
# Settings: HEK-293T, 10 μM compound, human GLUT9 stably expressing HEK293T cells, read-out: GLUT9 inhibitory rate at 10 μM of compound
# Method: A method for measuring GLUT9 inhibitory activity using human GLUT9 expressing cells transduced with Uricase/Hyper is shown hereinafter. GLUT9 inhibitory activity ([…]) of the test compound was calculated based on the intracellular uptake amount of labeled uric acid ([^14C] uric acid) transported by GLUT9.
# 1. Preparation of Human GLUT9 Expression Plasmid
# Human GLUT9S coding region (NM_001001290.1) was amplified by PCR method using PrimeSTAR MAX DNA Polymerase (Takara Bio). The obtained PCR product was subjected to agarose gel electrophoresis, and the desired size of PCR product was purified by QIAquick Gel Extraction Kit (QIAGEN). Next, pEBMulti-Bsd vector (Wako Pure Chemical Industries, Ltd.) was subjected to digestion using restriction enzymes SalI and EcoR V, and linked to the PCR product containing GLUT9S by In-Fusion reaction using In-Fusion HD Cloning Kit (Takara Bio). XL10-Gold Competent Cells (Agilent Technologies) were transformed in In-Fusion reaction solution, and the obtained transfectants were cultured with shaking overnight in LB medium to which Blasticidin S HCl (Thermo Fisher Scientific) was added. Human GLUT9 expression plasmid DNA was prepared from the collected transfectants using EndoFree Plasmid Kit (Takara Bio).
# 2. Establish of Human GLUT9 Stably Expressing Cell
# HEK293T cells (American Type Culture Collection, DS Pharma Biomedical) were seeded in a 6 well plate at 1×10^6 cells/well. Next day, human GLUT9 expression plasmid was transfected by using Lipofectamine 3000 Reagent (Thermo Fisher Scientific) as follows. Lipofectamine 3000 Reagent (5 μL) was diluted with Opti-MEM (125 μL, Thermo Fisher Scientific). Separately, plasmid DNA (2.5 μg) was diluted with Opti-MEM (125 μL), and P3000 Reagent (5 μL) was added thereto. The obtained solution was mixed with the previously obtained diluted solution, and the mixture was left stand at room temperature for 5 min, and added to the cells. Next day, the transfected cells were diluted and reseeded in a 6 well plate at 4×10^5 cells/well, and drug selection was performed in the presence of 30 μg/mL of Blasticidin S HCl, and thereby, Blasticidin-resistant human GLUT9 stably expressing cell line was established. Mock cells were prepared by introducing pEBMulti-Bsd vector into HEK293T cells in a similar manner.
# 3. Preparation of Uricase/Hyper Expression Plasmid
# Uricase/Hyper expression plasmid was prepared by linking the coding regions of Aspergillus Flavus-derived uricase gene and pHyPer-Cyto vector (Evrogen) HyPer gene to the pEBMulti-Hyg vector (Wako Pure Chemical Industries, Ltd.) and then introducing it. The preparation method was performed by reference to Gout and Nucleic Acid Metabolism 2013, 37(2), 93-101, and seven repeated linker sequence of glycine-glycine-glycine-serine was prepared herein.
# 4. Preparation of Human GLUT9-Uricase/Hyper Coexpressing Cell
# Human GLUT9 stably expressing cells were seeded at 3.6×10^7 cells per 225 cm^2 flask. Next day, Uricase/Hyper expression plasmid was transfected by using Lipofectamine 3000 Reagent as follows. Lipofectamine 3000 Reagent (40 μL) was diluted with Opti-MEM (750 μL). Separately, plasmid DNA (20 μg) was diluted with Opti-MEM (750 μL), and P3000 Reagent (40 μL) was added thereto. The obtained solution was mixed with the previously obtained diluted solution, and the mixture was left stand at room temperature for 5 min, and added to the cells. Next day, transfected cells were collected to prepare human GLUT9-Uricase/Hyper coexpressing cells.
# 5. Evaluation of GLUT9 Inhibitory Activity
# Uricase/Hyper transiently-transfected human GLUT9 stably expressing cells or mock cells (blank) were seeded in a 96 well plate (Corning) at 1.6×10^5 cells/well, and cultured overnight at 37° C., 5% CO2. D-MEM/high glucose (Wako Pure Chemical Industries, Ltd.) containing 10% Fetal Bovine Serum (Lifetechnology) and 100 units/ml penicillin/100 μg/ml streptomycin (GIBCO) was used as a medium.
# human GLUT9, sequence (Q9NRM0 other isoform, or with tags, fused parts or gaps): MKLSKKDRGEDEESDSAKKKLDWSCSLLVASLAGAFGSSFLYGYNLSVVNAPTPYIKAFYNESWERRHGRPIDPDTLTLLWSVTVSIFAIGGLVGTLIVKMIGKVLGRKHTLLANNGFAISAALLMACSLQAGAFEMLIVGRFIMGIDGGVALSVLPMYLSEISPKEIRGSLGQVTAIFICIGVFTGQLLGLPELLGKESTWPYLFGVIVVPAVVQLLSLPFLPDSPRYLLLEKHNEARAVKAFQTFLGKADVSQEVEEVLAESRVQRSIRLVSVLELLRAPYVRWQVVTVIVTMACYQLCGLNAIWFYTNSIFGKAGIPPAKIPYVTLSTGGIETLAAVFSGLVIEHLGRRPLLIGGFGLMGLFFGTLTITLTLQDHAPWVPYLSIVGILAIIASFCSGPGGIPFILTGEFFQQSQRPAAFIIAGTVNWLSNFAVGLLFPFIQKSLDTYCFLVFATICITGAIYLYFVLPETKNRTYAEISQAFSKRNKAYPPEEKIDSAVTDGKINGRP
row,inhibition at 10 µM [%],SMILES
1,45,COc1ccc(-c2ncc(C3CCOCC3)cc2-c2ccc(C(=O)O)cc2)cc1 [Example 60]
2,28,CCCCc1cnc(-c2ccc(O)cc2)c(-c2ccc(C(=O)O)cc2)n1 [Example 33]
3,5,CCCCc1cnc(-c2ccc(OC)c(C(=O)O)c2)c(-c2ccc(C(=O)O)cc2)n1 [Example 15]
4,9,CCCCc1cnc(-c2ccc(C(=O)N(C)C)cc2)c(-c2ccc(C(=O)O)cc2)n1 [Example 22]

# Same assay, conditions: final 300 μM uric acid, 6 min, human GLUT9 stably expressing HEK293T cells, read-out: humans GLUT9 inhibitory activity (IC50 value (μM))
row,SMILES,IC50 [µM]
1,COCc1cnc(-c2ccc(OC)cc2)c(-c2ccc(C(=O)O)cc2)c1 [Example 78],2.21
2,CCCc1cnc(-c2ccc(C(F)(F)F)cc2)c(-c2ccc(C(=O)O)cc2)n1 [Example 36],0.189
3,CCc1cnc(-c2ccc(OC)cc2)c(-c2ccc(C(=O)O)cc2)c1 [Example 56],0.18
4,CCCCc1cnc(-c2ccc(C#N)cc2)c(-c2ccc(C(=O)O)cc2)n1 [Example 9],0.483
5,COc1ccc(-c2ncc(CCCC3(O)CCC3)cc2-c2ccc(C(=O)O)cc2)cc1 [Example 44],1.65
6,CCCCc1cnc(-c2ccc(OC)cc2)c(-c2ccc(CC(=O)O)cc2)n1 [Example 38],0.865
7,CCCCc1cnc(-c2ccc(OC)c(C#N)c2)c(-c2ccc(C(=O)O)cc2)n1 [Example 17],0.692
8,COCCCc1cnc(-c2ccc(OC)c(F)c2)c(-c2ccc(C(=O)O)c(F)c2)n1 [Example 113],1
9,COc1ccc(-c2ncc(CCc3ccccc3)cc2-c2ccc(C(=O)O)cc2)cc1 [Example 105],0.453
10,CCCCc1cnc(-c2ccc(OC)c(C(F)(F)F)c2)c(-c2ccc(C(=O)O)cc2)n1 [Example 19],3.07
11,CCCCc1cnc(-c2ccc(CC#N)cc2)c(-c2ccc(C(=O)O)cc2)n1 [Example 87],1.79
12,COCCCc1cnc(-c2ccc(OC)cc2)c(-c2ccc(C(=O)O)c(Cl)c2)c1 [Example 120],0.539
13,CCCCc1cnc(-c2ccc(OC)cc2)c(-c2cc(F)c(C(=O)O)c(F)c2)n1 [Example 69],0.856
14,COCCc1cnc(-c2ccc(OC)cc2)c(-c2ccc(C(=O)O)cc2)c1 [Example 102],0.79
15,CCCCc1cnc(-c2ccc(OC)cc2)c(-c2ccc(C(C)(C)C(=O)O)cc2)n1 [Example 48],7.12
16,CCCCc1cnc(-c2ccc(OC)cc2)c(-c2cc(C)c(C(=O)O)c(C)c2)n1 [Example 110],0.265
17,COCCCCc1cnc(-c2cc(F)c(OC)c(F)c2)c(-c2ccc(C(=O)O)c(Cl)c2)n1 [Example 136],0.25
18,COCCCc1cnc(-c2cc(F)c(OC)c(F)c2)c(-c2ccc(C(=O)O)c(Cl)c2)n1 [Example 121],0.501
19,CCCCc1cnc(-c2ccc(C(C)(C)C)cc2)c(-c2ccc(C(=O)O)cc2)n1 [Example 55],3.99
20,CCCCc1cnc(-c2ccc(COC)cc2)c(-c2ccc(C(=O)O)cc2)n1 [Example 86],1.82
21,COc1ccc(-c2ncc(CCCCO)cc2-c2ccc(C(=O)O)cc2)cc1 [Example 51],0.962
22,CCCCc1cnc(-c2ccc(OC)cc2)c(-c2ccc(C(=O)O)c(Cl)c2)n1 [Example 92],0.181
23,COc1ccc(-c2ncc3c(c2-c2ccc(C(=O)O)cc2)CCCC3)cc1 [Example 12],5.06
24,CCCCc1cnc(-c2ccc(OC)cc2)c(-c2ccc(C(=O)O)c(OC)c2)n1 [Example 6],0.141
25,CCCCc1cnc(-c2ccc(CCC)cc2)c(-c2ccc(C(=O)O)cc2)n1 [Example 79],0.369
26,COc1ccc(-c2ncc(CCCO)cc2-c2ccc(C(=O)O)cc2)cc1 [Example 61],5.59
27,COCCCCc1cnc(-c2ccc(OC)cc2)c(-c2ccc(C(=O)O)c(Cl)c2)c1 [Example 125],0.229

# Continued, values first:
row,IC50 [µM],SMILES
1,0.0942,CCCCc1cnc(-c2ccc(OC)cc2)c(-c2ccc(C(=O)O)cc2)c1 [Example 18]
2,0.132,COc1ccc(-c2ncc(C3CCCC3)cc2-c2ccc(C(=O)O)cc2)cc1 [Example 59]
3,0.0613,COCCCCc1cnc(-c2cc(F)c(OC)c(F)c2)c(-c2ccc(C(=O)O)c(C)c2)n1 [Example 135]
4,0.124,CCCCc1cnc(-c2ccc(C3CC3)cc2)c(-c2ccc(C(=O)O)cc2)n1 [Example 34]
5,0.0514,COc1c(F)cc(-c2ncc(CC(C)C)cc2-c2ccc(C(=O)O)cc2)cc1F [Example 99]
6,0.0795,COCCCc1cnc(-c2cc(F)c(OC)c(F)c2)c(-c2ccc(CCC(=O)O)cc2)n1 [Example 97]
7,0.0607,CCCCc1cnc(-c2cc(F)c(OC)c(F)c2)c(-c2ccc(C(=O)O)cc2)n1 [Example 21]
8,0.134,CCCCc1cnc(-c2ccc(OC)cc2F)c(-c2ccc(C(=O)O)cc2)n1 [Example 3]
9,0.0576,COCCCc1cnc(-c2cc(F)c(OC)c(F)c2)c(-c2ccc(CCC(=O)O)cc2)c1 [Example 95]
10,0.0713,CCOCCc1cnc(-c2cc(F)c(OC)c(F)c2)c(-c2ccc(C(=O)O)cc2)c1 [Example 140]
11,0.106,COc1c(F)cc(-c2ncc(CC(C)C)nc2-c2ccc(C(=O)O)c(Cl)c2)cc1F [Example 151]
12,0.0519,COCCCCc1cnc(-c2cc(F)c(OC)c(F)c2)c(-c2ccc(CCC(=O)O)cc2)c1 [Example 132]
13,0.0712,COCCCc1cnc(-c2ccc(OC)c(F)c2)c(-c2ccc(CCC(=O)O)cc2)c1 [Example 108]
14,0.127,COc1ccc(-c2ncc(CCC(F)(F)F)cc2-c2ccc(C(=O)O)cc2)cc1 [Example 62]
15,0.0497,COCCCc1cnc(-c2cc(F)c(OC)c(F)c2)c(-c2ccc(C(=O)O)c(C)c2)c1 [Example 115]
16,0.0987,CCCCc1cnc(-c2cc(F)c(OC)c(Cl)c2)c(-c2ccc(C(=O)O)cc2)n1 [Example 64]
17,0.0569,COCCCCc1cnc(-c2cc(F)c(OC)c(F)c2)c(-c2ccc(C(=O)O)cc2)c1 [Example 129]
18,0.132,CCCCc1cnc(-c2ccc(OC)cc2)c(-c2ccc(CCC(=O)O)cc2)n1 [Example 71]
19,0.077,CCCc1cnc(-c2cc(F)c(OC)c(F)c2)c(-c2ccc(C(=O)O)cc2)n1 [Example 66]
20,0.0914,CCCCc1cnc(-c2ccc(OC)cc2)c(-c2ccc(C(=O)O)c(F)c2)n1 [Example 14]
21,0.139,CCCOCc1cnc(-c2cc(F)c(OC)c(F)c2)c(-c2ccc(CCC(=O)O)cc2)c1 [Example 146]
22,0.134,CCCCc1cnc(-c2ccc(Cl)cc2)c(-c2ccc(C(=O)O)cc2)n1 [Example 31]
23,0.0662,CCCCc1cnc(-c2ccc(OC)cc2)c(-c2ccc(C(=O)O)c(C)c2)n1 [Example 83]
24,0.133,CCCCc1cnc(-c2ccc3c(c2)OCCO3)c(-c2ccc(C(=O)O)cc2)n1 [Example 50]
25,0.117,"COCCCc1cnc(-c2ccc(OC)cc2)c(-c2ccc(C(=O)O)cc2)c1 [Example 84, 4-(2-(4-methoxyphenyl)-5-(3-methoxypropyl)pyridin-3-yl)benzoic Acid]"
26,0.108,"CCCOCc1cnc(-c2ccc(OC)cc2)c(-c2ccc(C(=O)O)cc2)c1 [Example 118, 4-(2-(4-methoxyphenyl)-5-(propoxymethyl)pyridin-3-yl)benzoic Acid]"
27,0.0589,COCCCCc1cnc(-c2ccc(OC)cc2)c(-c2ccc(C(=O)O)cc2)c1 [Example 123]
28,0.0688,COCCCCc1cnc(-c2ccc(OC)cc2)c(-c2ccc(CCC(=O)O)cc2)c1 [Example 127]
29,0.082,CCCCCCc1cnc(-c2ccc(OC)cc2)c(-c2ccc(C(=O)O)cc2)c1 [Example 100]
